PubChem BioAssay (NCI)
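Five compound concentrations were applied to cells in 96-well plates for 48 hours; endpoints were derived by simple linear interpolation of the resulting dose-response curve. Definition used: TGI = concentration required for complete inhibition of growth.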

Legend:
Test in all cases: NCI tumour cell line growth inhibition, 48 h
[1] = system: LOX IMVI melanoma
[2] = system: NCI-H226 lung
[3] = system: M19-MEL melanoma
[4] = system: CCRF-CEM leukemia
[5] = system: OVCAR-3 ovarian
[6] = system: MOLT-4 leukemia
[7] = system: U251 CNS
[8] = system: SF-268 CNS
[9] = system: MALME-3M melanoma
[10] = system: DMS 273 small cell lung
[11] = system: SNB-19 CNS
[12] = system: UO-31 renal
[13] = system: NCI-H23 lung
[14] = system: IGROV1 ovarian
[15] = system: SNB-75 CNS
[16] = system: DMS 114 small cell lung
[17] = system: SN12C renal
[18] = system: UACC-257 melanoma
[19] = system: SR leukemia
[20] = system: M14 melanoma
[21] = system: HOP-92 NSCLC
[22] = system: ACHN renal
[23] = system: KM12 colon
[24] = system: HT29 colon
[25] = system: XF 498 CNS
[26] = system: SF-295 CNS
[27] = system: HOP-62 NSCLC
[28] = system: SK-MEL-28 melanoma
[29] = system: TK-10 renal
[30] = system: CAKI-1 renal
[31] = system: EKVX NSCLC
[32] = system: HCT-116 colon
[33] = system: K-562 leukemia
[34] = system: SW-620 colon
[35] = system: 786-0 renal
[36] = system: SK-MEL-2 melanoma
[37] = system: A549 NSCLC
[38] = system: SNB-78 CNS
[39] = system: DLD-1 colon
[40] = system: HCT-15 colon
[41] = system: HL-60(TB) leukemia
[42] = system: LXFL 529 NSCLC
[43] = system: COLO 205 colon
[44] = system: SK-MEL-5 melanoma
[45] = system: OVCAR-4 ovarian
[46] = system: SK-OV-3 ovarian
[47] = system: NCI-H460 lung
[48] = system: SF-539 CNS
[49] = system: UACC-62 melanoma
[50] = system: HOP-18 NSCLC
[51] = system: OVCAR-5 ovarian
[52] = system: HCC-2998 colon
[53] = system: OVCAR-8 ovarian
[54] = system: RXF 393 renal
[55] = system: KM20L2 colon
[56] = system: RPMI-8226 leukemia
[57] = system: NCI-H522 lung
[58] = system: RXF-631 renal
[59] = system: A498 renal

Cc1nn2c(nc1=O)sc1ccc3ccccc3c12
TGI [1]: > 100 µM | TGI [2]: > 100 µM | TGI [3]: > 100 µM | TGI [4]: > 100 µM | TGI [5]: > 100 µM | TGI [6]: > 100 µM | TGI [7]: > 100 µM | TGI [8]: > 100 µM | TGI [9]: > 100 µM | TGI [10]: > 100 µM | TGI [11]: > 100 µM | TGI [12]: > 100 µM | TGI [13]: > 100 µM | TGI [14]: > 100 µM | TGI [15]: > 100 µM | TGI [16]: > 100 µM | TGI [17]: > 100 µM | TGI [18]: > 100 µM | TGI [19]: > 100 µM | TGI [20]: > 100 µM | TGI [21]: > 100 µM | TGI [22]: > 100 µM | TGI [23]: > 100 µM | TGI [24]: > 100 µM | TGI [25]: > 100 µM | TGI [26]: > 100 µM | TGI [27]: > 100 µM | TGI [28]: > 100 µM | TGI [29]: > 100 µM | TGI [30]: > 100 µM | TGI [31]: > 100 µM | TGI [32]: > 100 µM | TGI [33]: > 100 µM | TGI [34]: > 100 µM | TGI [35]: > 100 µM | TGI [36]: > 100 µM | TGI [37]: > 100 µM | TGI [38]: > 100 µM | TGI [39]: > 100 µM | TGI [40]: > 100 µM | TGI [41]: > 100 µM | TGI [42]: > 100 µM | TGI [43]: > 100 µM | TGI [44]: > 100 µM | TGI [45]: > 100 µM | TGI [46]: > 100 µM | TGI [47]: > 100 µM | TGI [48]: > 100 µM | TGI [49]: > 100 µM | TGI [50]: > 100 µM | TGI [51]: > 100 µM | TGI [52]: > 100 µM | TGI [53]: > 100 µM | TGI [54]: > 100 µM | TGI [55]: > 100 µM

CC(=O)C1Cn2c(=O)c3cc4ccccc4cc3c(=O)n2C=C1C (configuration not stated)
TGI [1]: > 100 µM | TGI [2]: > 100 µM | TGI [3]: > 100 µM | TGI [4]: > 100 µM | TGI [5]: > 100 µM | TGI [6]: > 100 µM | TGI [7]: > 100 µM | TGI [8]: > 100 µM | TGI [9]: > 100 µM | TGI [10]: > 100 µM | TGI [56]: > 100 µM | TGI [11]: > 100 µM | TGI [12]: > 100 µM | TGI [13]: > 100 µM | TGI [14]: > 100 µM | TGI [15]: > 100 µM | TGI [16]: > 100 µM | TGI [17]: > 100 µM | TGI [18]: > 100 µM | TGI [57]: > 100 µM | TGI [19]: > 100 µM | TGI [20]: > 100 µM | TGI [21]: > 100 µM | TGI [22]: > 100 µM | TGI [23]: > 100 µM | TGI [25]: > 100 µM | TGI [26]: > 100 µM | TGI [27]: > 100 µM | TGI [28]: > 100 µM | TGI [29]: > 100 µM | TGI [30]: > 100 µM | TGI [31]: > 100 µM | TGI [32]: > 100 µM | TGI [33]: > 100 µM | TGI [34]: > 100 µM | TGI [35]: > 100 µM | TGI [58]: > 100 µM | TGI [36]: > 100 µM | TGI [37]: > 100 µM | TGI [38]: > 100 µM | TGI [39]: > 100 µM | TGI [40]: > 100 µM | TGI [59]: > 100 µM | TGI [41]: > 100 µM | TGI [42]: > 100 µM | TGI [43]: > 100 µM | TGI [44]: > 100 µM | TGI [45]: > 100 µM | TGI [46]: > 100 µM | TGI [47]: > 100 µM | TGI [48]: > 100 µM | TGI [51]: > 100 µM | TGI [52]: > 100 µM | TGI [53]: > 100 µM | TGI [54]: > 100 µM | TGI [55]: > 100 µM

N#CCCN(CCC#N)c1ccc(/C=C(\NC(=O)c2cc([N+](=O)[O-])ccc2Cl)C(=O)Nc2ccccc2)cc1
TGI [1]: > 100 µM | TGI [2]: > 100 µM | TGI [3]: > 100 µM | TGI [4]: > 100 µM | TGI [5]: > 100 µM | TGI [6]: > 100 µM | TGI [7]: > 100 µM | TGI [8]: > 100 µM | TGI [10]: > 100 µM | TGI [56]: > 100 µM | TGI [11]: > 100 µM | TGI [12]: > 100 µM | TGI [13]: > 100 µM | TGI [14]: > 100 µM | TGI [16]: > 100 µM | TGI [17]: > 100 µM | TGI [57]: > 100 µM | TGI [19]: > 100 µM | TGI [21]: > 100 µM | TGI [22]: > 100 µM | TGI [23]: > 100 µM | TGI [25]: > 100 µM | TGI [26]: > 100 µM | TGI [27]: > 100 µM | TGI [28]: > 100 µM | TGI [29]: > 100 µM | TGI [30]: > 100 µM | TGI [31]: > 100 µM | TGI [32]: > 100 µM | TGI [33]: > 100 µM | TGI [36]: > 100 µM | TGI [37]: > 100 µM | TGI [38]: > 100 µM | TGI [39]: > 100 µM | TGI [40]: > 100 µM | TGI [42]: > 100 µM | TGI [43]: > 100 µM | TGI [44]: > 100 µM | TGI [45]: > 100 µM | TGI [46]: > 100 µM | TGI [48]: > 100 µM | TGI [49]: > 100 µM | TGI [50]: > 100 µM | TGI [51]: > 100 µM | TGI [53]: > 100 µM | TGI [54]: > 100 µM | TGI [55]: > 100 µM

O=C1C=CC2(C=C1)CCNC1=C2C(=O)c2ccccc2C1=O
TGI [1]: > 100 µM | TGI [2]: > 100 µM | TGI [3]: > 100 µM | TGI [4]: > 100 µM | TGI [5]: 76.7 µM | TGI [6]: > 100 µM | TGI [7]: > 100 µM | TGI [8]: > 100 µM | TGI [9]: > 100 µM | TGI [10]: > 100 µM | TGI [56]: > 100 µM | TGI [12]: > 100 µM | TGI [13]: > 100 µM | TGI [14]: > 100 µM | TGI [15]: > 100 µM | TGI [16]: > 100 µM | TGI [17]: > 100 µM | TGI [18]: > 100 µM | TGI [57]: > 100 µM | TGI [20]: > 100 µM | TGI [21]: > 100 µM | TGI [22]: > 100 µM | TGI [23]: > 100 µM | TGI [24]: > 100 µM | TGI [25]: > 100 µM | TGI [26]: > 100 µM | TGI [27]: > 100 µM | TGI [28]: > 100 µM | TGI [29]: > 100 µM | TGI [31]: > 100 µM | TGI [32]: > 100 µM | TGI [33]: > 100 µM | TGI [34]: > 100 µM | TGI [35]: > 100 µM | TGI [58]: > 100 µM | TGI [36]: > 100 µM | TGI [37]: > 100 µM | TGI [39]: > 100 µM | TGI [40]: > 100 µM | TGI [59]: > 100 µM | TGI [41]: > 100 µM | TGI [42]: > 100 µM | TGI [43]: > 100 µM | TGI [44]: > 100 µM | TGI [45]: > 100 µM | TGI [46]: > 100 µM | TGI [47]: > 100 µM | TGI [48]: > 100 µM | TGI [49]: > 100 µM | TGI [51]: > 100 µM | TGI [52]: > 100 µM | TGI [53]: > 100 µM | TGI [54]: > 100 µM | TGI [55]: > 100 µM
